Reference: US9957282B2, “Crystalline forms of quinolone analogs and their salts” (Senhwa Biosciences, Inc., priority 2015, dated 2018)

Assays:
[1] = Aqueous solubility of acid salts of Compound I; type: physicochemical; details: water, 42 °C, thermodynamic from solid, approximately 50 mg salt in 0.25 mL water (x2, added portion wise), read-out: Aqueous Solubility (Calculated)
Method: The mixture was stirred at 42° C. for 3 days and each solution was analyzed by HPLC for concentration and purity.

[2] = Solubility of polymorph forms in organic solvents; type: physicochemical
Method: Solubility of polymorphs A, C, E, and G of Compound I (free base) were determined by suspending approximately 25 mg of each polymorph in organic solvents and the resulting mixtures were stirred at room temperature or elevated temperatures for 1 h. A sample was filtered and the concentration was determined by HPLC. The remaining suspension was evaporated and the solid was analyzed by XRPD to confirm that the polymorph form in the suspension was still the same polymorph form used for the experiment.

Row | SMILES | solubility at 3 days [1] | Relative stability of polymorph, inferred from solubility ([2]; compared with polymorphs C, E, G) | Solubility of polymorph relative to polymorphs A, C, E, G ([2]; methanol and THF (FIG. 20), room temperature or elevated temperatures, stirred 1 h)
1 | Cc1cnc(CNC(=O)c2c(=O)c3ccc(N4CCCN(C)CC4)nc3n3c2sc2ccccc23)cn1 | > 200 mg/mL |  | 
2 | Cc1cnc(CNC(=O)c2c(=O)c3ccc(N4CCCN(C)CC4)nc3n3c2sc2ccccc23)cn1 [Polymorph A] |  | most stable | lowest solubility
